Assay results as given in patent EP4729530A1, “NOVEL PEPTIDE AND USE THEREOF” (Gemvax & Kael Co., Ltd., priority 2023, dated 2024).

Tests used:
[1] = system: AT8 (phospho-Tau S202/T205); assay: Immunofluorescence staining of brain tissue (AT8) for tau hyperphosphorylation; assay type: in vivo, mouse; details: GV2002 2 mg/kg subcutaneous, 3 times/week, 21 weeks
Protocol: (§1) In vivo experiments were performed on the 4R tauopathy mouse groups shown in FIG. 4 according to the schedule shown in FIG. 5 and the outline in Table 3 below.
The brains of a 4R tauopathy mouse model administered GV2002 for 5 months, from 7.5 to 12.5 months of age, were removed and analyzed using immunofluorescence staining.
For brain tissue sampling, the 4R tauopathy mouse models were anesthetized, and saline was perfused intracardially, after which the blood was removed using a perfusion pump device. Then, the brains were removed and weighed. The brains to be used for tissue staining experiments were fixed in a 4% PFA solution for 24 hours. The fixed brain tissue was immersed in a 20% sucrose solution for 24 hours and then in a 30% sucrose solution for 48 hours for dehydration. The dehydrated brain tissue was removed, excess moisture was eliminated, and the brain tissue and a cryoembedding agent (OCT compound) were placed together in a mold to protect the tissue, after which the brain tissue was rapidly frozen using dry ice. The frozen brain tissue mold was stored in a -80 °C freezer. Afterwards, the brain tissue was sectioned into 30-µm-thick sections using a cryostat and stored in a 0.05% sodium azide solution.
For immunofluorescence staining of brain tissue, 30-µm-thick frozen brain sections were selected according to brain region, washed three times with PBS for 10 minutes each, fixed in 3.7% formaldehyde for 5 minutes, and washed three times with PBS for 10 minutes each. The brain tissue samples were permeabilized in 0.3% PBS-T solution, and then blocked in 5% BSA solution in PBS for 1 hour. The brain tissues were incubated overnight in 3% BSA and 0.1% Tween-20 solution in PBS containing AT8 (phospho-Tau S202/T205) antibody diluted at a ratio of 1:200, which targets tau hyperphosphorylation. The brain tissues were washed three times with PBS for 10 minutes each. The brain tissues were then incubated for 1 hour at room temperature in 3% BSA and 0.1% Tween-20 solution in PBS containing secondary antibody diluted 1:500. The brain tissues were immersed in PBS solution and washed once for 10 minutes. […] The brain tissues were immersed in PBS solution and washed three times for 10 minutes each, and fluorescence imaging was performed using a slide scanner.
To obtain fluorescence images of the stained brain tissue, brain tissue slides were scanned using a Zeiss Axio Scan (Zeiss, Oberkochen, Germany). AT8 fluorescence levels in each brain tissue region obtained through fluorescence imaging, i.e., the somatosensory cortex, hippocampus (CA1), motor cortex, and substantia nigra, were calculated using ImageJ software (NIH). The calculated values were analyzed using one-way ANOVA with Dunnett's multiple comparisons test.

tau oligomer formation = assay: Brain Tau-BiFC imaging for tau oligomer formation; assay type: in vivo, mouse; details: GV2002 2 mg/kg subcutaneous, 3 times/week, 21 weeks
Protocol: as §1
Brains from a 4R tauopathy mouse model administered GV2002 for five months, from 7.5 to 12.5 months of age, were removed and analyzed using lipid staining.
Brain tissue sampling was performed in the same manner as in Example 4-5.
To remove autofluorescence from brain tissues through lipid staining, a 0.05% Sudan Black B solution in 70% ethanol was stirred overnight and then filtered through a 0.22-µm filter. 30-µm-thick frozen brain sections from each region were immersed in deionized water and washed three times for 5 minutes each. The brain tissue was then immersed in the prepared 0.05% Sudan Black B solution for 10 minutes to perform staining. The brain tissue stained with Sudan Black B was immersed in 0.1% PBS-T solution and washed at 30-second intervals to adjust the staining intensity and then washed three times with deionized water for 5 minutes each. Nuclear staining was performed by immersing the brain tissue in a 0.2-µg/mL Hoechst solution in deionized water for 20 minutes. The tissue was then washed three times with deionized water for 5 minutes each. Tau-BiFC imaging was performed using a slide scanner.
To obtain fluorescence images of the stained brain tissue, brain tissue slides were scanned using a Zeiss Axio Scan. Tau-BiFC fluorescence levels in each brain region obtained through fluorescence imaging, i.e., the somatosensory cortex, hippocampus (CA1), motor cortex, and substantia nigra, were calculated using ImageJ software. The calculated values were analyzed using one-way ANOVA with Dunnett's multiple comparisons test.

4R Tau^P301L-BiFC mouse = assay: Novel object recognition experiment in 4R tauopathy mouse model; assay type: in vivo; details: GV2002 2 mg/kg subcutaneous, 3 times/week, 21 weeks
Protocol: as §1
Novel object recognition experiments were conducted on a 4R tauopathy mouse model administered GV2002 for five months, from 7.5 to 12.5 months of age, to evaluate the efficacy of GV2002 in alleviating impairment in cognitive ability.
Mice that underwent the experiment from days 1 to 6 according to the experimental method in Example 4-2 were subjected to a novel object recognition experiment on days 7 and 8. […] On day 8, one of the two objects was replaced with a novel object, and mice were placed in the enclosure and observed for 10 minutes, during which the time spent exploring the novel object was measured. Prior to the experiments on days 7 and 8, mice were allowed one hour to acclimate to the testing environment. The illumination level was maintained at a constant level throughout the experiment. The recorded data were analyzed using two-way ANOVA with Sidak's multiple comparisons test.

[2] = Pharmacokinetic profile in rats (intravenous and subcutaneous administration); assay type: in vivo; details: Sprague Dawley rats
Protocol: To determine the pharmacokinetic profile of GV2002 prepared in Example 1, plasma was collected from rats administered with GV2002. The collected plasma was pretreated by protein precipitation using nine times the volume of methanol containing 0.1% formic acid, followed by centrifugation at 16,100 g for 10 minutes.
GV2002 was administered intravenously (IV) to three Sprague Dawley rats per group. Blood samples were collected at 0.033, 0.083, 0.17, 0.25, 0.5, 1, and 2 hours after administration. The collected blood samples were centrifuged to separate plasma, pretreated, and analyzed using LC-MS. Pharmacokinetic parameters were calculated using the non-compartmental analysis model of the Phoenix WinNonlin (Pharsight, ver. 6.4, USA) program.
GV2002 was administered subcutaneously (SC) to three Sprague Dawley rats per group. Blood samples were collected at 0.033, 0.083, 0.17, 0.25, 0.5, 1, and 2 hours after administration. The collected blood samples were centrifuged to separate plasma, pretreated, and analyzed using LC-MS. Pharmacokinetic parameters were calculated using the non-compartmental analysis model of Phoenix WinNonlin (Pharsight ver. 6.4, USA).

[3] = Stability in human plasma (LC-MS, residual peptide); assay type: in vitro ADME; details: 37 °C, read-out: percentage of residual peptide relative to the peptide amount before reaction
Protocol: The peptide was added to human plasma and diluted to a concentration of 5 µM, followed by incubation at 37 °C for 10, 60, and 240 minutes with stirring. The reaction mixture was collected and pretreated by plasma protein precipitation using methanol containing 0.1% formic acid. The resulting supernatants were collected and analyzed by LC-MS under the conditions shown in Table 1 below to determine the percentage of residual peptide relative to the initial peptide amount.

Ac-EARPALLTSRLRFIPK-NH2 [GV2002]
AT8 fluorescence intensity, reduction compared to the vehicle-administered group ([1]; hippocampus region): 62% | AT8 fluorescence intensity, reduction compared to the vehicle-administered group ([1]; motor cortex region): 65% | AT8 fluorescence intensity, reduction compared to the vehicle-administered group ([1]; somatosensory cortex region): 57% | AT8 fluorescence intensity, reduction compared to the vehicle-administered group ([1]; substantia nigra region): 69% | Tau-BiFC fluorescence intensity, reduction compared to the vehicle-administered group (tau oligomer formation; hippocampus region): 63% | Tau-BiFC fluorescence intensity, reduction compared to the vehicle-administered group (tau oligomer formation; motor cortex region): 56% | Tau-BiFC fluorescence intensity, reduction compared to the vehicle-administered group (tau oligomer formation; somatosensory cortex region): 58% | Tau-BiFC fluorescence intensity, reduction compared to the vehicle-administered group (tau oligomer formation; substantia nigra region): 56% | time spent exploring the novel object compared to the time spent exploring the learned object (4R Tau^P301L-BiFC mouse): significant increase | AUC(0-t) ([2]; rat, plasma, intravenous (IV), non-compartmental analysis): 438 ng·h/mL | in vivo persistence after subcutaneous administration ([2]; subcutaneous (SC)): remains in a stable state in vivo without degradation and persists for a long period of time | remaining at 1 h, 5 µM ([3]; 60 minutes): 57.2% | remaining at 4 h, 5 µM ([3]; 240 minutes): 46.5%
